Reference: patent US20250145665A1, “MACROCYCLIC PEPTIDES USEFUL AS MODULATORS OF TNF ALPHA” (Bristol-Myers Squibb Company, priority 2023, published 2025)
Positions of bridges follow the written chain, without caps; N, C: chain ends. Non-standard residues stand in square brackets, D forms with d. Residues, ends and D or L forms follow the SMILES beside them. Bip(4'-COOH) = N[C@@H](Cc1ccc(-c2ccc(C(=O)O)cc2)cc1)C(=O)O; Ala(morpholin-4-yl) = N[C@@H](CN1CCOCC1)C(=O)O; Bip = N[C@@H](Cc1ccc(-c2ccccc2)cc1)C(=O)O; Morpholine(3S-CO) = O=C(O)[C@@H]1COCCN1; Val(3-OH) = CC(C)(O)[C@H](N)C(=O)O; 2Pal = N[C@@H](Cc1ccccn1)C(=O)O; Aze = O=C(O)[C@@H]1CCN1; Sar = CNCC(=O)O

Molecular target: TNFα (Homo sapiens, UniProt P01375)
Assay: TNF-Induced HEK-Blue Assay
Type: cell-based
Settings: not given

Chain of TNFα (P01375 77-233 limits assumed): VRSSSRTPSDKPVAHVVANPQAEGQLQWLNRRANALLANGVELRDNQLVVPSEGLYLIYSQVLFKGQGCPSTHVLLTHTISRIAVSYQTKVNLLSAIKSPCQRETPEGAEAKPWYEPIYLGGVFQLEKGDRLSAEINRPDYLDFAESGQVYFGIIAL

Question: `CC(C)C[C@@H]1NC(=O)[C@H](Cc2ccc(O)cc2)NC(=O)[C@H](C(C)C)NC(=O)CN(C)C(=O)[C@H](C(C)C)NC(=O)[C@H](CCCNC(=N)N)NC(=O)[C@H](CC(=O)O)NC(=O)[C@@H]2CCCN2C(=O)CN(C)C(=O)[C@H](Cc2ccc(-c3ccccc3)cc2)NC(=O)[C@H](Cc2ccc(-c3ccccc3)cc2)NC(=O)[C@H](CC(N)=O)NC(=O)CSC[C@@H](C(=O)NCC(N)=O)NC1=O` [Example 142] ({CH2CO}-N[Bip][Bip][Sar]PDRV[Sar]VYLCG-NH2; thioether N-13) was tested. Which IC50 did it give?
Answer: The IC50 was 200 to 2000 nM.

Same assay, conditions: HEK-Blue-CD40L cells, NF-kB-driven secreted alkaline phosphatase reporter; TNFα 0.5 ng/ml; 18 h; read-out: TNF induced HEK-Blue assay IC50 value

Question: `CC(C)C[C@@H]1NC(=O)[C@H](Cc2ccc(O)cc2)NC(=O)[C@H](C(C)C)NC(=O)[C@@H]2CCCN2C(=O)[C@H](C(C)C)NC(=O)[C@@H](CCCNC(=N)N)NC(=O)[C@H](CC(=O)O)NC(=O)[C@@H]2CCCN2C(=O)CNC(=O)[C@H](Cc2ccc(-c3ccccc3)cc2)NC(=O)[C@H](Cc2ccc(-c3ccccc3)cc2)NC(=O)[C@H](CN2CCOCC2)NC(=O)CSC[C@@H](C(=O)NCC(N)=O)NC1=O` [Example 129] ({CH2CO}-[Ala(morpholin-4-yl)][Bip][Bip]GPD[dR]VPVYLCG-NH2; thioether N-13) was tested. Which IC50 did it give?
Answer: The IC50 was 200 to 2000 nM.

Question: Which IC50 does the source give for `CC(C)C[C@@H]1NC(=O)[C@H](CCCNC(=N)N)NC(=O)[C@H](C(C)C)NC(=O)[C@@H]2CCCN2C(=O)[C@H](C(C)C)NC(=O)[C@@H](CCCNC(=N)N)NC(=O)[C@H](CC(=O)O)NC(=O)[C@@H]2CCCN2C(=O)CNC(=O)[C@H](Cc2ccc(-c3ccccc3)cc2)NC(=O)[C@H](Cc2ccc(-c3ccccc3)cc2)NC(=O)[C@H](CN2CCOCC2)NC(=O)CSC[C@@H](C(=O)NCC(N)=O)NC1=O` [Example 130] ({CH2CO}-[Ala(morpholin-4-yl)][Bip][Bip]GPD[dR]VPVRLCG-NH2; thioether N-13) here?
Answer: Its IC50 is 200 to 2000 nM.

Question: For `CC(C)C[C@@H]1NC(=O)[C@H](Cc2ccc(O)cc2)NC(=O)[C@H](C(C)C)NC(=O)[C@@H]2CCCN2C(=O)[C@H](C(C)C)NC(=O)[C@@H](CCCNC(=N)N)NC(=O)[C@H](CC(=O)O)NC(=O)[C@H](Cc2ccc(O)cc2)NC(=O)CNC(=O)[C@H](Cc2ccc(-c3ccccc3)cc2)NC(=O)[C@H](Cc2ccc(-c3ccccc3)cc2)NC(=O)[C@H](CN2CCOCC2)NC(=O)CSC[C@@H](C(=O)NCC(N)=O)NC1=O` [Example 131] ({CH2CO}-[Ala(morpholin-4-yl)][Bip][Bip]GYD[dR]VPVYLCG-NH2; thioether N-13), which IC50 is on record?
Answer: The IC50 was 50 to 200 nM.

Question: For `CC(C)C[C@@H]1NC(=O)[C@H](CCCNC(=N)N)NC(=O)[C@H](C(C)C)NC(=O)[C@@H]2CCCN2C(=O)[C@H](C(C)C)NC(=O)[C@@H](CCCNC(=N)N)NC(=O)[C@H](CC(=O)O)NC(=O)[C@H](Cc2ccc(O)cc2)NC(=O)CNC(=O)[C@H](Cc2ccc(-c3ccccc3)cc2)NC(=O)[C@H](Cc2ccc(-c3ccccc3)cc2)NC(=O)[C@H](CN2CCOCC2)NC(=O)CSC[C@@H](C(=O)NCC(N)=O)NC1=O` [Example 132] ({CH2CO}-[Ala(morpholin-4-yl)][Bip][Bip]GYD[dR]VPVRLCG-NH2; thioether N-13), which IC50 is on record?
Answer: Its IC50 is 50 to 200 nM.

Question: Which IC50 does the source give for `CC(C)C[C@@H]1NC(=O)[C@H](Cc2ccc(O)cc2)NC(=O)[C@H](C(C)C)NC(=O)[C@@H]2CCCN2C(=O)[C@H](C(C)C)NC(=O)[C@H](CCCNC(=N)N)NC(=O)[C@H](CC(N)=O)NC(=O)[C@@H]2CCCN2C(=O)CN(C)C(=O)[C@H](Cc2ccc(-c3ccccc3)cc2)NC(=O)[C@H](Cc2ccc(-c3ccccc3)cc2)NC(=O)[C@H](CN2CCOCC2)NC(=O)CSC[C@@H](C(=O)NCC(N)=O)NC1=O` [Example 133] ({CH2CO}-[Ala(morpholin-4-yl)][Bip][Bip][Sar]PNRVPVYLCG-NH2; thioether N-13) here?
Answer: The IC50 was 200 to 2000 nM.

Question: Which IC50 does the source give for `CC(C)C[C@@H]1NC(=O)[C@H](Cc2ccc(O)cc2)NC(=O)[C@H](C(C)C)NC(=O)CN(C)C(=O)[C@H](C(C)C)NC(=O)[C@@H](CCCNC(=N)N)NC(=O)[C@H](CC(=O)O)NC(=O)[C@H](Cc2ccc(O)cc2)NC(=O)CN(C)C(=O)[C@H](Cc2ccc(-c3ccccc3)cc2)NC(=O)[C@H](Cc2ccc(-c3ccccc3)cc2)NC(=O)[C@H](CN2CCOCC2)NC(=O)CSC[C@@H](C(=O)NCC(N)=O)NC1=O` [Example 134] ({CH2CO}-[Ala(morpholin-4-yl)][Bip][Bip][Sar]YD[dR]V[Sar]VYLCG-NH2; thioether N-13) here?
Answer: The IC50 was 50 to 200 nM.

Question: `CC(C)C[C@@H]1NC(=O)[C@H](CCCNC(=N)N)NC(=O)[C@H](C(C)C)NC(=O)CN(C)C(=O)[C@H](C(C)C)NC(=O)[C@@H](CCCNC(=N)N)NC(=O)[C@H](CC(=O)O)NC(=O)[C@H](Cc2ccc(O)cc2)NC(=O)CN(C)C(=O)[C@H](Cc2ccc(-c3ccccc3)cc2)NC(=O)[C@H](Cc2ccc(-c3ccccc3)cc2)NC(=O)[C@H](CN2CCOCC2)NC(=O)CSC[C@@H](C(=O)NCC(N)=O)NC1=O` [Example 135] ({CH2CO}-[Ala(morpholin-4-yl)][Bip][Bip][Sar]YD[dR]V[Sar]VRLCG-NH2; thioether N-13) was tested. Which IC50 did it give?
Answer: The IC50 was 200 to 2000 nM.

Question: `CC(C)C[C@@H]1NC(=O)[C@H](Cc2ccc(O)cc2)NC(=O)[C@H](C(C)C)NC(=O)CN(C)C(=O)[C@H](C(C)C)NC(=O)[C@@H](CCCNC(=N)N)NC(=O)[C@H](CC(=O)O)NC(=O)[C@@H]2CCCN2C(=O)CN(C)C(=O)[C@H](Cc2ccc(-c3ccccc3)cc2)NC(=O)[C@H](Cc2ccc(-c3ccccc3)cc2)NC(=O)[C@H](CN2CCOCC2)NC(=O)CSC[C@@H](C(=O)NCC(N)=O)NC1=O` [Example 136] ({CH2CO}-[Ala(morpholin-4-yl)][Bip][Bip][Sar]PD[dR]V[Sar]VYLCG-NH2; thioether N-13) was tested. Which IC50 did it give?
Answer: Its IC50 is 50 to 200 nM.

Question: With `CC(C)C[C@@H]1NC(=O)[C@H](Cc2ccc(O)cc2)NC(=O)[C@H](C(C)C)NC(=O)CNC(=O)[C@H](C(C)C)NC(=O)[C@@H](CCCNC(=N)N)NC(=O)[C@H](CC(=O)O)NC(=O)[C@H](Cc2ccc(O)cc2)NC(=O)CN(C)C(=O)[C@H](Cc2ccc(-c3ccccc3)cc2)NC(=O)[C@H](Cc2ccc(-c3ccccc3)cc2)NC(=O)[C@H](CN2CCOCC2)NC(=O)CSC[C@@H](C(=O)NCC(N)=O)NC1=O` [Example 137] ({CH2CO}-[Ala(morpholin-4-yl)][Bip][Bip][Sar]YD[dR]VGVYLCG-NH2; thioether N-13) as the molecule, how does the IC50 read?
Answer: Its IC50 is 200 to 2000 nM.

Question: How did the IC50 turn out when `CC(C)C[C@@H]1NC(=O)[C@H](CCCNC(=N)N)NC(=O)[C@H](C(C)C)NC(=O)CNC(=O)[C@H](C(C)C)NC(=O)[C@H](CCCNC(=N)N)NC(=O)[C@H](CC(=O)O)NC(=O)[C@H](Cc2ccc(O)cc2)NC(=O)CN(C)C(=O)[C@H](Cc2ccc(-c3ccccc3)cc2)NC(=O)[C@H](Cc2ccc(-c3ccccc3)cc2)NC(=O)[C@H](CN2CCOCC2)NC(=O)CSC[C@@H](C(=O)NCC(N)=O)NC1=O` [Example 138] ({CH2CO}-[Ala(morpholin-4-yl)][Bip][Bip][Sar]YDRVGVRLCG-NH2; thioether N-13) was run?
Answer: The IC50 was 200 to 2000 nM.

Question: For `CC(C)C[C@@H]1NC(=O)[C@H](Cc2ccc(O)cc2)NC(=O)[C@H](C(C)C)NC(=O)CNC(=O)[C@H](C(C)C)NC(=O)[C@H](CCCNC(=N)N)NC(=O)[C@H](CC(=O)O)NC(=O)[C@@H]2CCCN2C(=O)CN(C)C(=O)[C@H](Cc2ccc(-c3ccccc3)cc2)NC(=O)[C@H](Cc2ccc(-c3ccccc3)cc2)NC(=O)[C@H](CN2CCOCC2)NC(=O)CSC[C@@H](C(=O)NCC(N)=O)NC1=O` [Example 139] ({CH2CO}-[Ala(morpholin-4-yl)][Bip][Bip][Sar]PDRVGVYLCG-NH2; thioether N-13), which IC50 is on record?
Answer: The IC50 was 200 to 2000 nM.

Question: How did the IC50 turn out when `CC(C)C[C@@H]1NC(=O)[C@H](Cc2ccc(O)cc2)NC(=O)[C@H](C(C)C)NC(=O)CN(C)C(=O)[C@H](C(C)C)NC(=O)[C@H](CCCNC(=N)N)NC(=O)[C@H](CC(=O)O)NC(=O)[C@H](Cc2ccc(O)cc2)NC(=O)CN(C)C(=O)[C@H](Cc2ccc(-c3ccccc3)cc2)NC(=O)[C@H](Cc2ccc(-c3ccccc3)cc2)NC(=O)[C@H](C(C)(C)O)NC(=O)CSC[C@@H](C(=O)NCC(N)=O)NC1=O` [Example 140] ({CH2CO}-[Val(3-OH)][Bip][Bip][Sar]YDRV[Sar]VYLCG-NH2; thioether N-13) was run?
Answer: Its IC50 is 200 to 2000 nM.

Question: Which IC50 does the source give for `CC(C)C[C@@H]1NC(=O)[C@H](Cc2ccc(O)cc2)NC(=O)[C@H](C(C)C)NC(=O)CN(C)C(=O)[C@H](C(C)C)NC(=O)[C@H](CCCNC(=N)N)NC(=O)[C@H](CC(=O)O)NC(=O)[C@@H]2CCCN2C(=O)CN(C)C(=O)[C@H](Cc2ccc(-c3ccccc3)cc2)NC(=O)[C@H](Cc2ccc(-c3ccccc3)cc2)NC(=O)[C@H](C(C)(C)O)NC(=O)CSC[C@@H](C(=O)NCC(N)=O)NC1=O` [Example 141] ({CH2CO}-[Val(3-OH)][Bip][Bip][Sar]PDRV[Sar]VYLCG-NH2; thioether N-13) here?
Answer: Its IC50 is 50 to 200 nM.

Question: Which IC50 does the source give for `CC(C)C[C@@H]1NC(=O)[C@H](Cc2ccc(O)cc2)NC(=O)[C@H](C(C)C)NC(=O)[C@@H]2COCCN2C(=O)[C@H](C(C)C)NC(=O)[C@@H](CCCNC(=N)N)NC(=O)[C@H](CC(=O)O)NC(=O)[C@H](Cc2ccc(O)cc2)NC(=O)CN(C)C(=O)[C@H](Cc2ccc(-c3ccccc3)cc2)NC(=O)[C@H](Cc2ccc(-c3ccccc3)cc2)NC(=O)[C@H](CN2CCOCC2)NC(=O)CSC[C@@H](C(=O)NCC(N)=O)NC1=O` [Example 143] ({CH2CO}-[Ala(morpholin-4-yl)][Bip][Bip][Sar]YD[dR]V[Morpholine(3S-CO)]VYLCG-NH2; thioether N-13) here?
Answer: Its IC50 is < 50 nM.

Question: For `CC(C)C[C@@H]1NC(=O)[C@H](Cc2ccc(O)cc2)NC(=O)[C@H](C(C)C)NC(=O)[C@@H]2CCCN2C(=O)[C@H](C(C)C)NC(=O)[C@@H](CCCNC(=N)N)NC(=O)[C@H](CC(=O)O)NC(=O)[C@H](Cc2ccccn2)NC(=O)CN(C)C(=O)[C@H](Cc2ccc(-c3ccccc3)cc2)NC(=O)[C@H](Cc2ccc(-c3ccccc3)cc2)NC(=O)[C@H](CN2CCOCC2)NC(=O)CSC[C@@H](C(=O)NCC(N)=O)NC1=O` [Example 144] ({CH2CO}-[Ala(morpholin-4-yl)][Bip][Bip][Sar][2Pal]D[dR]VPVYLCG-NH2; thioether N-13), which IC50 is on record?
Answer: The IC50 was < 50 nM.

Question: Which IC50 does the source give for `CC(C)C[C@@H]1NC(=O)[C@H](Cc2ccc(O)cc2)NC(=O)[C@H](C(C)C)NC(=O)[C@@H]2CCN2C(=O)[C@H](CC(N)=O)NC(=O)[C@@H](CCCNC(=N)N)NC(=O)[C@H](CC(=O)O)NC(=O)[C@H](Cc2ccc(O)cc2)NC(=O)CN(C)C(=O)[C@H](Cc2ccc(-c3ccccc3)cc2)NC(=O)[C@H](Cc2ccc(-c3ccc(C(=O)O)cc3)cc2)NC(=O)[C@H](CN2CCOCC2)NC(=O)CSC[C@@H](C(=O)NCC(N)=O)NC1=O` [Example 145] ({CH2CO}-[Ala(morpholin-4-yl)][Bip(4'-COOH)][Bip][Sar]YD[dR]N[Aze]VYLCG-NH2; thioether N-13) here?
Answer: The IC50 was < 50 nM.
